Results published in patent publication US6432426B1, “Non-staining topical iodine composition and method” (Symbollon Corporation, priority 1998, dated 2002).

Tested on: Human Skin
Assay: Coloration of human skin by a 30 second exposure (vial contact on forearm); hue by Pantone chips, intensity against Brown No. 3 dye
Format: in vivo
Design: key to Coloration of human skin: N = no visible staining; L = light staining barely noticeable; S = a clearly visible coloration
Conditions: for Coloration of human skin: 30 second exposure, lines = Subjects 1-3
Excerpt: 1. […] Elemental iodine was weighed on an analytical balance and dissolved in one liter of water that had been acidified with 2 drops of 0.1N hydrochloric acid. The concentration of molecular iodine in the water was confirmed by potentiometric analysis (Gottardi, W., 1983. Fresenius Z. Anal. Chem., Vol. 314, pages 582-585). Samples were also titrated with thiosulfate to determine that at least 95% of the theoretical yield of titratable iodine was in the form of molecular iodine as opposed to triiodide. The concentration of molecular iodine was varied from 25 ppm to 330 ppm.
One dram vials (Kimble catalog #60931) were used to deliver 4 mL of the room temperature iodine solutions samples. The vials were placed on the forearm of a subject and then the forearm was inverted to initiate contact of the sample with the iodine solution. The contact area was a circle with a diameter of 1.3 cm. The samples were held on the arm for 30 seconds at room temperature. Three different subjects were used for this experiment. Immediately after the 30 second contact time the arms of the subjects were examined for stains; 10 minutes after the end of the contact time all subjects arms were examined for stains again..
For the purposes of this application, two different parameters were used to characterize the color and intensity of the term stain. The hue of the color imparted to skin was characterized by using the Pantone Color Matching System (Pantone Color Specifier, Pantone Inc., Carlstadt, N.J.) which allows comparison with 1,012 defined colors on two types of paper. Stains from triiodide were matched to the Pantone color chip No. 152C. Short-lived coloration from molecular iodine were matched to the Pantone color chip 1375C.
The intensity of any coloration on skin was characterized by applying an aqueous solution of known concentrations of a food dye, Brown No. 3 (Crompton & Knowles, Mahwah, N.J. —Code DP935159), for 10 seconds using the method described above for application of iodine. Brown No. 3 was applied to the skin at concentrations that ranged from 500 ppm to 30 ppm and the intensity of the color from Brown No. 3 was compared to the intensity of coloration from iodine compositions. For instance, the intensity of color 10 minutes after a 30 second contact with a 600 ppm aqueous triiodide solution was equivalent to the color from a 10 second exposure to a 250 ppm Brown No. 3 solution. In contrast, the intensity of color 10 minutes after a 30 second contact with a 300 ppm aqueous molecular iodine solution was equivalent to the color from a ten second exposure to a 30 ppm Brown No. 3 solution which is barely discernible.

Structure (SMILES): II [Molecular Iodine, molecular iodine]
- Coloration of human skin (25 ppm molecular iodine, 0 min post contact): N
- Coloration of human skin (25 ppm molecular iodine, 10 min post contact): N
- Coloration of human skin (50 ppm molecular iodine, 0 min post contact): N
- Coloration of human skin (50 ppm molecular iodine, 10 min post contact): N
- Coloration of human skin (100 ppm molecular iodine, 0 min post contact): N and L
- Coloration of human skin (100 ppm molecular iodine, 10 min post contact): N
- Coloration of human skin (200 ppm molecular iodine, 0 min post contact): S
- Coloration of human skin (200 ppm molecular iodine, 10 min post contact): N
- Coloration of human skin (300 ppm molecular iodine, 0 min post contact): S
- Coloration of human skin (300 ppm molecular iodine, 10 min post contact): N and L
- Intensity of color on skin, equivalent Brown No. 3 solution (ten second exposure) (10 minutes after a 30 second contact with a 300 ppm aqueous molecular iodine solution, barely discernible): 30 ppm
- Hue of the color imparted to skin, matched Pantone color chip (Pantone Color Matching System): 1375C
